Test results taken from ChEMBL document CHEMBL5608174, “Synthesis and biological evaluation of 4-phenyl-5-quinolinyl substituted isoxazole analogues as potent cytotoxic and tubulin polymerization inhibitors against ESCC” (Eur J Med Chem, 2024).

How the values were obtained:
[1] = tested on: MGC-803; test: Antiproliferative activity against human MGC-803 cells assessed as inhibition of cell proliferation incubated for 48 hrs by MTT assay; format: functional, cell-based; conditions: MGC-803, 48 h
[2] = tested on: KYSE-30; test: cells; conditions: Homo sapiens, KYSE-30, 48 h
Description: Antiproliferative activity against human KYSE-30 cells assessed as inhibition of cell proliferation incubated for 48 hrs by MTT assay

[3] = tested on: HCT-116; test: cells; conditions: Homo sapiens, HCT-116, 48 h
Description: Antiproliferative activity against human HCT-116 cells assessed as inhibition of cell proliferation incubated for 48 hrs by MTT assay

[4] = Cytotoxicity against HUVEC cells assessed as inhibition of cell growth incubated for 48 hrs by MTT assay; format: toxicity, cell-based; conditions: human
[5] = Toxicity in female BALB/c-nu nude mouse xenografted with human KYSE-30 cells assessed as effect on body weight at 6 to 12 mg/kg, ip administered for 15 days; format: organism-based; conditions: in vivo, 360 h, dose 6-12 mg/kg, time 15 day

Row | IC50 [1] [nM] | IC50 [2] [nM] | IC50 [3] [nM] | SMILES | IC50 at 48 h [4] [nM] | Activity [5]
1 | > 10000 | > 10000 | > 10000 | c1ccc2c(-c3[nH]nnc3-c3ccc4sccc4c3)ccnc2c1 |  | 
2 | 2120 | 723 | > 10000 | c1ccc2c(-c3oncc3-c3ccc4c(c3)CCO4)ccnc2c1 |  | 
3 | 153 | 1350 | 773 | COc1ccc(-c2[nH]nnc2-c2ccnc3ccccc23)cc1 |  | 
4 | 58 | > 800 | > 800 | CCCOc1ccc(-c2cnoc2-c2cc(C)nc3ccccc23)cc1 |  | 
5 | 188 | 178 | 211 | c1ccc2c(-c3[nH]nnc3-c3ccc4[nH]ccc4c3)ccnc2c1 |  | 
6 | 31 | 65 | 44 | CCOc1ccc(-c2cn[nH]c2-c2cc(C)nc3ccccc23)cc1 | > 710 | 
7 | 28 | 194 | 2320 | COc1ccc(-c2cnoc2-c2ccnc3ccccc23)cc1[N+](=O)[O-] |  | 
8 | 65 | 103 | 54 | COc1ccc(-c2cnoc2-c2cc(C)nc3ccccc23)cc1[N+](=O)[O-] |  | 
9 | > 10000 | > 10000 | > 10000 | COc1cccc(-c2[nH]nnc2-c2ccnc3ccccc23)c1 |  | 
10 | 875 | 6410 | 6040 | CCCOc1ccc(-c2cn[nH]c2-c2ccnc3ccccc23)cc1 |  | 
11 | 4830 | > 10000 | > 10000 | CC(C)Oc1ccc(-c2cn[nH]c2-c2ccnc3ccccc23)cc1 |  | 
12 | 39 | 92 | 68 | COc1ccc(-c2cn[nH]c2-c2cc(C)nc3ccccc23)cc1 | > 710 | 
13 | 3360 | 244 | 705 | CC(C)Oc1ccc(-c2nn[nH]c2-c2ccnc3ccccc23)cc1 |  | 
14 | 410 | > 800 | > 800 | Cc1cc(-c2oncc2-c2ccc3c(c2)CCO3)c2ccccc2n1 |  | 
15 | > 10000 | > 10000 | > 10000 | c1ccc2c(-c3[nH]nnc3-c3ccc4[nH]c5ccccc5c4c3)ccnc2c1 |  | 
16 | 130 | > 800 | 90 | CCCOc1ccc(-c2cn[nH]c2-c2cc(C)nc3ccccc23)cc1 |  | 
17 | 199 | 1020 | 958 | COc1ccc(-c2cn[nH]c2-c2ccnc3ccccc23)cc1 |  | 
18 | 59 | 287 | 381 | CCOc1ccc(-c2[nH]nnc2-c2ccnc3ccccc23)cc1 |  | 
19 | 18 | 14 | > 800 | CCOc1ccc(-c2cnoc2-c2cc(C)nc3ccccc23)cc1 | > 710 | Non-Toxic
20 | > 10000 | > 10000 | > 10000 | c1ccc2c(-c3[nH]nnc3-c3ccc4sc5ccccc5c4c3)ccnc2c1 |  | 
21 | 32 | 21 | 24 | COc1ccc(-c2nn[nH]c2-c2ccnc3ccccc23)cc1O |  | 
22 | > 10000 | > 10000 | > 10000 | c1ccc2c(-c3[nH]nnc3-c3ccc4oc5ccccc5c4c3)ccnc2c1 |  | 
23 | 8460 | 3400 | 7760 | c1ccc2c(-c3[nH]nnc3-c3ccc4occc4c3)ccnc2c1 |  | 
24 | > 10000 | > 10000 | > 10000 | Cc1ccccc1-c1nn[nH]c1-c1ccnc2ccccc12 |  | 

Row | IC50 [1] [nM] | IC50 [2] [nM] | IC50 [3] [nM] | SMILES | IC50 at 48 h [4] [nM] | Activity [5]
25 | 1540 | 3190 | 5530 | COc1cccc(-c2cn[nH]c2-c2ccnc3ccccc23)c1 |  | 
26 | 435 | 714 | 603 | CCCOc1ccc(-c2cnoc2-c2ccnc3ccccc23)cc1 |  | 
27 | 330 | > 800 | > 800 | Cc1cc(-c2[nH]ncc2-c2ccc(OC(C)C)cc2)c2ccccc2n1 |  | 
28 | > 800 | > 800 | > 800 | COc1ccccc1-c1cn[nH]c1-c1cc(C)nc2ccccc12 |  | 
29 | 14 | 122 | 39 | CCOc1ccc(-c2cnoc2-c2ccnc3ccccc23)cc1 |  | 
30 | 101 | 349 | 288 | COc1cccc(-c2cnoc2-c2cc(C)nc3ccccc23)c1 |  | 
31 | 24 | 354 | 982 | COc1ccc(-c2cnoc2-c2ccnc3ccccc23)cc1 |  | 
32 | > 10000 | 10000 | > 10000 | c1ccc2c(-c3[nH]ncc3-c3ccc4c(c3)CCO4)ccnc2c1 |  | 
33 | 489 | 1510 | 4500 | CC(C)Oc1ccc(-c2cnoc2-c2ccnc3ccccc23)cc1 |  | 
34 | > 10000 | > 10000 | > 10000 | COc1ccccc1-c1cn[nH]c1-c1ccnc2ccccc12 |  | 
35 | 5690 | 6370 | > 10000 | c1ccc2c(-c3[nH]nnc3-c3ccc4c(c3)CCO4)ccnc2c1 |  | 
36 | 1980 | > 2510 | > 10000 | COc1ccc(-c2cn[nH]c2-c2ccnc3ccccc23)cc1[N+](=O)[O-] |  | 
37 | 5800 | 1650 | 3680 | Cc1ccc(-c2nn[nH]c2-c2ccnc3ccccc23)cc1 |  | 
38 | > 10000 | > 10000 | > 10000 | Cc1cccc(-c2nn[nH]c2-c2ccnc3ccccc23)c1 |  | 
39 | 2530 | 4570 | 5420 | COc1cccc(-c2cnoc2-c2ccnc3ccccc23)c1 |  | 
40 | > 10000 | > 10000 | > 10000 | COc1ccccc1-c1[nH]nnc1-c1ccnc2ccccc12 |  | 
41 | > 10000 | > 10000 | > 10000 | c1cc(-c2nn[nH]c2-c2ccnc3ccccc23)c2occc2c1 |  | 
42 | 249 | 3170 | 437 | CCOc1ccc(-c2cn[nH]c2-c2ccnc3ccccc23)cc1 |  | 
43 | 49 | 226 | 133 | Cc1cc(-c2oncc2-c2ccc(OC(C)C)cc2)c2ccccc2n1 |  | 
44 | 3240 | 491 | 740 | Cc1cc(-c2[nH]ncc2-c2ccc3c(c2)CCO3)c2ccccc2n1 |  | 
45 | 1960 | 7530 | 8580 | COc1ccccc1-c1cnoc1-c1cc(C)nc2ccccc12 |  | 
46 | 293 | 403 | 245 | COc1cccc(-c2cn[nH]c2-c2cc(C)nc3ccccc23)c1 |  | 
47 | > 10000 | > 10000 | > 10000 | COc1ccccc1-c1cnoc1-c1ccnc2ccccc12 |  | 
